Assay type in all cases: biochemical
The target of one test is T1, Bl_Endo85 (Bifidobacterium longum, UniProt Q8G4P3).
T1 sequence (Q8G4P3 38-937): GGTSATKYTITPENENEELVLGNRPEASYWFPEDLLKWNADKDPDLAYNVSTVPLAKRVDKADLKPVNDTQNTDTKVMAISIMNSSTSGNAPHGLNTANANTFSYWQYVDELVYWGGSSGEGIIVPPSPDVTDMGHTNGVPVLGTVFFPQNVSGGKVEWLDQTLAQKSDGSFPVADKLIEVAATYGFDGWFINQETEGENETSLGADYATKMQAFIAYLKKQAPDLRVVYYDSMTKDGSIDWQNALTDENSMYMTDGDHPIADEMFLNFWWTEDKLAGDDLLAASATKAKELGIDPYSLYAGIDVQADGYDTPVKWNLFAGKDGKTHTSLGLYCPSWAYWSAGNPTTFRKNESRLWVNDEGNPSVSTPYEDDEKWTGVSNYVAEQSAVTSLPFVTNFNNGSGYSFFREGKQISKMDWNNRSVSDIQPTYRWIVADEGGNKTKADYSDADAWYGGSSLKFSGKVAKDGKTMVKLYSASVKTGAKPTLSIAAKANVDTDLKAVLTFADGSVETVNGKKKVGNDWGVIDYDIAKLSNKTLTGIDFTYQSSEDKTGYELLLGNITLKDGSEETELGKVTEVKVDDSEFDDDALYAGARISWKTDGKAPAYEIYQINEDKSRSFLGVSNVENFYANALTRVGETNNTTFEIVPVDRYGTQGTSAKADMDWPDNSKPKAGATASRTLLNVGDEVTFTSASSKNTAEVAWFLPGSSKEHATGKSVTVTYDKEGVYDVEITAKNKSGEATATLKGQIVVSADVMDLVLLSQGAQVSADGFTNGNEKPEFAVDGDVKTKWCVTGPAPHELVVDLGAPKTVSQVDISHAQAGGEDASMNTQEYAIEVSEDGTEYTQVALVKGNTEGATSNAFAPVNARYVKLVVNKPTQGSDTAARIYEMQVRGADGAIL
Nature of the test: LC-MS. The conditions noted are these: 150 mM ammonium acetate pH 5.0, 37 °C, 16 h.

A further test has as its target Bl_Glc31 (Bifidobacterium longum, UniProt Q8G4P4). Nature of the test: LC-MS. The conditions noted are these: product Man9GlcNAc.
The next test addresses T2, Bl_Man38C (Bifidobacterium longum, UniProt Q8G4P9).
T2 sequence (Q8G4P9 1-1034): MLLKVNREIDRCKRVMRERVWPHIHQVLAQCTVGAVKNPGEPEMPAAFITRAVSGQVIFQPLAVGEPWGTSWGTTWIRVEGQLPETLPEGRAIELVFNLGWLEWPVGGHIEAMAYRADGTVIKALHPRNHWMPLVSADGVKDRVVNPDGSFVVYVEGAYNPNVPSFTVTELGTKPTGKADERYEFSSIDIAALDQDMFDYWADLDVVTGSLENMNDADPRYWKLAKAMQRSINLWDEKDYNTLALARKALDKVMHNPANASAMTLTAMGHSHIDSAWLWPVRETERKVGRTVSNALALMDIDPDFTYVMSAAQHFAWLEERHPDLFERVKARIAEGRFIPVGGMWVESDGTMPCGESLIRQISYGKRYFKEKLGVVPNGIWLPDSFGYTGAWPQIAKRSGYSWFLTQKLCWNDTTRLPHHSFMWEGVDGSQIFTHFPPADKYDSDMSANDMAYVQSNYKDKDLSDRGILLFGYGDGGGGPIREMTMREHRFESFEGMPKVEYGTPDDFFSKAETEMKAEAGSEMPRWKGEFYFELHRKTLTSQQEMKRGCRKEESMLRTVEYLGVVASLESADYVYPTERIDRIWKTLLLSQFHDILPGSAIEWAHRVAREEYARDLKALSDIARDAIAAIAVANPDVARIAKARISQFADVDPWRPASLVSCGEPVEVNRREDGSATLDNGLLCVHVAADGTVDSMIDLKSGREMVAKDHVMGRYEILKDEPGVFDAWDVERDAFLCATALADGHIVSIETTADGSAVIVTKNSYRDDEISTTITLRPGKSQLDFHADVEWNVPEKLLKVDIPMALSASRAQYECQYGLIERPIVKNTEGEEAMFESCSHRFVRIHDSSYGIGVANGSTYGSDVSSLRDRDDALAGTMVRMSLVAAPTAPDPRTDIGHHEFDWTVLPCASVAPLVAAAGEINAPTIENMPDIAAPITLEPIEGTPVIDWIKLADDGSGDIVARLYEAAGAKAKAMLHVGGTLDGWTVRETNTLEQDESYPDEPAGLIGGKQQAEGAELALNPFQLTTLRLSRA
Nature of the test: LC-MS hydrolysis kinetics. The settings on record: pH 5.5, 37 °C, 0.1 mM CoCl2.

Another test has as its target T3, Bl_Man125 (Bifidobacterium longum, UniProt Q8G4P0).
T3 sequence (Q8G4P0 1-432): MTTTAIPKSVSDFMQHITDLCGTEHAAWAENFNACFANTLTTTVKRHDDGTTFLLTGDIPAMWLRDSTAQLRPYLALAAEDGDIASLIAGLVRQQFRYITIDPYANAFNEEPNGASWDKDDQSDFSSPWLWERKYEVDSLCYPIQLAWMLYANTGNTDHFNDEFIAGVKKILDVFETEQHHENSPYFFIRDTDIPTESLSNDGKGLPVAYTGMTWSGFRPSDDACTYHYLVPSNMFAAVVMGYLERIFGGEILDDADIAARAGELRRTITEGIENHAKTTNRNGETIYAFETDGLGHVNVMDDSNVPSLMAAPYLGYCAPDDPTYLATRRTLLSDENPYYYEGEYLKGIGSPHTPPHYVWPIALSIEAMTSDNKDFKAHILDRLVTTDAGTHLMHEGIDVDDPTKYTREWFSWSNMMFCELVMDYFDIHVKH
The test can be described thus: LC-MS hydrolysis kinetics. The settings on record: pH 5.5, 37 °C.

Another test deals with T4, Bl_Man38B (Bifidobacterium longum, UniProt Q8G4Q0).
T4 sequence (Q8G4Q0 1-1046): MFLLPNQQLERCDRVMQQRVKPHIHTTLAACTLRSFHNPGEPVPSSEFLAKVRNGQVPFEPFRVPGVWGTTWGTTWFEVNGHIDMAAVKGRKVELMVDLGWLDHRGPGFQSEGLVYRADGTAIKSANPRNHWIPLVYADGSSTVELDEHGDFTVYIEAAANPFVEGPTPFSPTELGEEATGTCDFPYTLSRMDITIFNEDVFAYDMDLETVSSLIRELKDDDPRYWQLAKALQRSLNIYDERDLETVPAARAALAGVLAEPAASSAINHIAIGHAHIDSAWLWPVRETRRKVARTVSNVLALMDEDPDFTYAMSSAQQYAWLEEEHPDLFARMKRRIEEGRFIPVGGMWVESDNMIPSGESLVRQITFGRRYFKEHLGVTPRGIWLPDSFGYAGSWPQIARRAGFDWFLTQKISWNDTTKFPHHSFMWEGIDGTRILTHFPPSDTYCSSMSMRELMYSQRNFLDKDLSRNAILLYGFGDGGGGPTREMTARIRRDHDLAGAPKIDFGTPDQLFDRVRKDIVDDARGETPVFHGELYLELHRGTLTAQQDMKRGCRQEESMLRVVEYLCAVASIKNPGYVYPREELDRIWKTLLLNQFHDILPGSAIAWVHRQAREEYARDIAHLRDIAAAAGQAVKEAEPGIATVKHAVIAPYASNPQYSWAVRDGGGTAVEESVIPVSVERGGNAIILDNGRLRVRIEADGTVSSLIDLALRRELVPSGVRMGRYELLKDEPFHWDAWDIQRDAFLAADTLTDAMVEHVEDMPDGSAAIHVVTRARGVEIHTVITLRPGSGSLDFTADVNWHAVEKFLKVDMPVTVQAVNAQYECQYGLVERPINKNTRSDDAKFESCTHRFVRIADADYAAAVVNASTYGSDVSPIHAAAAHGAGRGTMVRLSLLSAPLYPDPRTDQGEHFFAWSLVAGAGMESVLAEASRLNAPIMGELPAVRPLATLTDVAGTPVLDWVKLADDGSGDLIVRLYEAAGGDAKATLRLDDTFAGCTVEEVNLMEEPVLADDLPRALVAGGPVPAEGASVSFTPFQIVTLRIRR
The test can be described thus: LC-MS hydrolysis kinetics. The conditions noted are these: pH 5.5, 37 °C, 0.1 mM CoCl2.

Drawing on article PMC10367113 (Nature chemical biology, 2022), this text covers LC-MS and Km for 5 molecules.

In the case of `CC(=O)N[C@H]1[C@H](O[C@H]2[C@H](O)[C@@H](NC(C)=O)C(O)O[C@@H]2CO)O[C@H](CO)[C@@H](O[C@@H]2O[C@H](CO[C@H]3O[C@H](CO[C@H]4O[C@H](CO)[C@@H](O)[C@H](O)[C@@H]4O[C@H]4O[C@H](CO)[C@@H](O)[C@H](O)[C@@H]4O)[C@@H](O)[C@H](O[C@H]4O[C@H](CO)[C@@H](O)[C@H](O)[C@@H]4O[C@H]4O[C@H](CO)[C@@H](O)[C@H](O)[C@@H]4O)[C@@H]3O)[C@@H](O)[C@H](O[C@H]3O[C@H](CO)[C@@H](O)[C@H](O)[C@@H]3O[C@H]3O[C@H](CO)[C@@H](O)[C@H](O)[C@@H]3O[C@H]3O[C@H](CO)[C@@H](O)[C@H](O[C@H]4O[C@H](CO)[C@@H](O)[C@H](O)[C@H]4O)[C@@H]3O)[C@@H]2O)[C@@H]1O` (stereo partly drawn) [GlcMan9GlcNAc2], the LC-MS entry on Bl_Endo85 (product GlcMan9GlcNAc) is “Reaction of Bl_Endo85 against GlcMan9GlcNAc2, generating GlcMan9GlcNAc”.

For `CC(=O)N[C@H]1C(O)O[C@H](CO)[C@@H](O[C@@H]2O[C@H](CO[C@H]3O[C@H](CO[C@H]4O[C@H](CO)[C@@H](O)[C@H](O)[C@@H]4O[C@H]4O[C@H](CO)[C@@H](O)[C@H](O)[C@@H]4O)[C@@H](O)[C@H](O[C@H]4O[C@H](CO)[C@@H](O)[C@H](O)[C@@H]4O[C@H]4O[C@H](CO)[C@@H](O)[C@H](O)[C@@H]4O)[C@@H]3O)[C@@H](O)[C@H](O[C@H]3O[C@H](CO)[C@@H](O)[C@H](O)[C@@H]3O[C@H]3O[C@H](CO)[C@@H](O)[C@H](O)[C@@H]3O[C@H]3O[C@H](CO)[C@@H](O)[C@H](O[C@H]4O[C@H](CO)[C@@H](O)[C@H](O)[C@H]4O)[C@@H]3O)[C@@H]2O)[C@@H]1O` (stereo partly drawn) [GlcMan9GlcNAc], the LC-MS result on Bl_Glc31 is given as “Bl_Glc31 can specifically cleave GlcMan9GlcNAc, generating only Man9GlcNAc”.

Take `CC(=O)N[C@@H]1[C@@H](O)[C@H](O[C@@H]2O[C@H](CO)[C@@H](O[C@@H]3O[C@H](CO[C@H]4O[C@H](CO[C@H]5O[C@H](CO)[C@@H](O)[C@H](O)[C@@H]5O[C@H]5O[C@H](CO)[C@@H](O)[C@H](O)[C@@H]5O)[C@@H](O)[C@H](O[C@H]5O[C@H](CO)[C@@H](O)[C@H](O)[C@@H]5O[C@H]5O[C@H](CO)[C@@H](O)[C@H](O)[C@@H]5O)[C@@H]4O)[C@@H](O)[C@H](O[C@H]4O[C@H](CO)[C@@H](O)[C@H](O)[C@@H]4O[C@H]4O[C@H](CO)[C@@H](O)[C@H](O)[C@@H]4O[C@H]4O[C@H](CO)[C@@H](O)[C@H](O)[C@@H]4O)[C@@H]3O)[C@H](O)[C@H]2NC(C)=O)[C@@H](CO)O[C@H]1NC(=O)C[C@H](N)C(=O)O` [Man9GlcNAc2-Asn]: the LC-MS result at Bl_Endo85 (product Man9GlcNAc) is “Reactions of Bl_Endo85 against Man5GlcNAc2-Asn (e) and Man9GlcNAc2-Asn (g)”.

In the case of `OC[C@H]1O[C@H](O[C@@H]2C(O)O[C@H](CO)[C@@H](O)[C@@H]2O)[C@@H](O)[C@@H](O)[C@@H]1O` (stereo partly drawn) [α-1,2-mannobiose], the Km result on Bl_Man38C is “Bl_Man38C presents a clear preference for α-1,2-mannobiose”.

On to `OC[C@H]1O[C@H](OC[C@H]2OC(O)[C@@H](O)[C@@H](O)[C@@H]2O)[C@@H](O)[C@@H](O)[C@@H]1O` (stereo partly drawn) [α-1,6-mannobiose], for which the Km entry is reported as “Bl_Man125 was shown to be strictly an α-1,6-mannosidase” on Bl_Man125 and “Bl_Man38B was efficient over the three disaccharides” at Bl_Man38B.
